Source: patent publication US6737383B1, “Herbicidal oxadiazolidines” (priority 1999, dated 2004)

Key:
wild oat = assay: Test B pre/postemergence wild oat; type: in vivo, Avena fatua
Procedure, shortened: (§1)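 Test chemicals in a non-phytotoxic solvent mixture with surfactant were sprayed preemergence onto planted seeds and postemergence onto plants 2 to 18 cm tall (1- to 4-leaf stage). After twelve to sixteen days in a greenhouse, injury was visually rated against untreated controls from 0 (no effect) to 10 (complete control).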

sugar beet = assay: Test B pre/postemergence sugar beet; type: in vivo, Beta vulgaris
Procedure, shortened: as §1

giant foxtail = assay: Test B pre/postemergence giant foxtail; type: in vivo, Setaria faberii
Procedure, shortened: as §1

duck salad = assay: Test B flood test duck salad; type: in vivo, Heteranthera limosa
Procedure, shortened: (§2)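 Flood test on plants grown to the 2-leaf stage; treated plants kept in greenhouse twelve to sixteen days, then visually rated against controls on a 0 (no effect) to 10 (complete control) scale.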

rape = assay: Test B pre/postemergence rape; type: in vivo, Brassica napus
Procedure, shortened: as §1

velvetleaf = assay: Test B pre/postemergence velvetleaf; type: in vivo, Abutilon theophrasti
Procedure, shortened: as §1

wheat = assay: Test B pre/postemergence wheat; type: in vivo, Triticum aestivum
Procedure, shortened: as §1

bamyardgrass = assay: Test B flood test barnyardgrass; type: in vivo, Echinochloa crus-galli
Procedure, shortened: as §2

purple nutsedge = assay: Test B pre/postemergence purple nutsedge; type: in vivo, Cyperus rotundus
Procedure, shortened: as §1

morningglory = assay: Test B pre/postemergence morningglory; type: in vivo, Ipomoea hederacea
Procedure, shortened: as §1

cocklebur = assay: Test B pre/postemergence cocklebur; type: in vivo, Xanthium strumarium
Procedure, shortened: as §1

soybean = assay: Test B pre/postemergence soybean; type: in vivo, Glycine max
Procedure, shortened: as §1

pigweed = assay: Test B pre/postemergence pigweed; type: in vivo, Amaranthus retroflexus
Procedure, shortened: as §1

smallflower flatsedge = assay: Test B flood test smallflower flatsedge; type: in vivo, Cyperus difformis
Procedure, shortened: as §2

blackgrass = assay: Test B pre/postemergence blackgrass; type: in vivo, Alopecurus myosuroides
Procedure, shortened: as §1

rice = assay: Test B flood test rice; type: in vivo, Oryza sativa
Procedure, shortened: as §2

[1] = Postemergence, Rate 62 g/ha, scale 0 to 10, 0 is no effect, 10 is complete control
[2] = Postemergence, Rate 125 g/ha, scale of 0 to 10 where 0 is no effect and 10 is complete control
[3] = Postemergence, Rate 250 g/ha, scale of 0 to 10, 0 is no effect, 10 is complete control
[4] = Preemergence, Rate 62 g/ha, scale of 0 to 10 where 0 is no effect and 10 is complete control
[5] = Preemergence, Rate 125 g/ha, scale of 0 to 10 where 0 is no effect and 10 is complete control
[6] = Preemergence, Rate 250 g/ha, scale 0 to 10 (0 no effect, 10 complete control)
[7] = Preemergence, Rate 500 g/ha, scale of 0 to 10 where 0 is no effect and 10 is complete control
[8] = Postemergence, Rate 500 g/ha, scale of 0 to 10 where 0 is no effect and 10 is complete control
[9] = Rate 62 g/ha, flood test species, Pre-emergence, visual evaluation after twelve to sixteen days
[10] = Rate 125 g/ha, under heading Pre-emergence, flood test species, visual evaluation after twelve to sixteen days
[11] = Rate 250 g/ha, Pre-emergence (flood test species), scale 0 to 10, 0 is no effect, 10 is complete control
[12] = Rate 500 g/ha, Pre-emergence section of Table B, 0 to 10 scale (0 no effect, 10 complete control)

CC(C)N(C(=O)n1oc(=O)n(CC(=O)C2CCC2)c1=O)c1ccc(F)cc1F [Compound 642]
Plant response rating, Wild oats (wild oat; [1]): 1
Wild oats plant response rating (wild oat; [2]): 1
Wild oats plant response rating (wild oat; [3]): 1
Wild oats plant response rating (wild oat; [4]): 0
Wild oats plant response rating (wild oat; [5]): 0
Plant response rating, Wild oats (wild oat; [6]): 2
Plant response rating, Wild oats (wild oat; [7]): 4
Plant response rating, Sugarbeets (sugar beet; [1]): 0
Sugarbeets plant response rating (sugar beet; [2]): 0
Sugarbeets plant response rating (sugar beet; [3]): 0
Sugarbeets plant response rating (sugar beet; [4]): 0
Sugarbeets plant response rating (sugar beet; [5]): 0
Plant response rating, Sugarbeets (sugar beet; [6]): 0
Plant response rating, Sugarbeets (sugar beet; [7]): 4
Plant response rating, Giant foxtail (giant foxtail; [1]): 0
Giant foxtail plant response rating (giant foxtail; [2]): 0
Giant foxtail plant response rating (giant foxtail; [3]): 4
Plant response rating, Giant foxtail (giant foxtail; [8]): 7
Giant foxtail plant response rating (giant foxtail; [4]): 8
Giant foxtail plant response rating (giant foxtail; [5]): 10
Plant response rating, Giant foxtail (giant foxtail; [6]): 10
Plant response rating, Giant foxtail (giant foxtail; [7]): 10
Plant response rating, Ducksalad (0 to 10 scale, 0 is no effect, 10 is complete control) (duck salad; [9]): 0
Ducksalad plant response rating (0 to 10 scale, 0 is no effect, 10 is complete control) (duck salad; [10]): 0
Ducksalad plant response rating (duck salad; [11]): 0
Ducksalad plant response rating (duck salad; [12]): 0
Plant response rating, Rape (rape; [1]): 0
Rape plant response rating (rape; [2]): 0
Rape plant response rating (rape; [3]): 0
Plant response rating, Rape (rape; [8]): 0
Rape plant response rating (rape; [4]): 0
Rape plant response rating (rape; [5]): 2
Plant response rating, Rape (rape; [6]): 4
Plant response rating, Rape (rape; [7]): 9
Plant response rating, Velvetleaf (velvetleaf; [1]): 0
Velvetleaf plant response rating (velvetleaf; [2]): 0
Velvetleaf plant response rating (velvetleaf; [3]): 3
Velvetleaf plant response rating (velvetleaf; [4]): 0
Velvetleaf plant response rating (velvetleaf; [5]): 0
Plant response rating, Velvetleaf (velvetleaf; [6]): 0
Plant response rating, Velvetleaf (velvetleaf; [7]): 3
Plant response rating, Wheat (wheat; [1]): 0
Wheat plant response rating (wheat; [2]): 0
Wheat plant response rating (wheat; [3]): 0
Wheat plant response rating (wheat; [4]): 0
Wheat plant response rating (wheat; [5]): 0
Plant response rating, Wheat (wheat; [6]): 0
Plant response rating, Wheat (wheat; [7]): 0
Plant response rating, Barnyardgrass (0 to 10 scale, 0 is no effect, 10 is complete control) (bamyardgrass; [9]): 0
Barnyardgrass plant response rating (0 to 10 scale, 0 is no effect, 10 is complete control) (bamyardgrass; [10]): 0
Barnyardgrass plant response rating (bamyardgrass; [11]): 0
Barnyardgrass plant response rating (bamyardgrass; [12]): 0
Plant response rating, Nutsedge (purple nutsedge; [1]): 0
Nutsedge plant response rating (purple nutsedge; [2]): 0
Nutsedge plant response rating (purple nutsedge; [3]): 0
Plant response rating, Nutsedge (purple nutsedge; [8]): 0
Nutsedge plant response rating (purple nutsedge; [4]): 0
Nutsedge plant response rating (purple nutsedge; [5]): 0
Plant response rating, Nutsedge (purple nutsedge; [6]): 0
Plant response rating, Nutsedge (purple nutsedge; [7]): 0
Plant response rating, Morningglory (morningglory; [1]): 0
Morningglory plant response rating (morningglory; [2]): 0
Morningglory plant response rating (morningglory; [3]): 0
Plant response rating, Morningglory (morningglory; [8]): 3
Morningglory plant response rating (morningglory; [4]): 0
Morningglory plant response rating (morningglory; [5]): 0
Plant response rating, Morningglory (morningglory; [6]): 0
Plant response rating, Morningglory (morningglory; [7]): 0
Plant response rating, Cocklebur (cocklebur; [1]): 0
Cocklebur plant response rating (cocklebur; [2]): 0
Cocklebur plant response rating (cocklebur; [3]): 0
Plant response rating, Cocklebur (cocklebur; [8]): 0
Cocklebur plant response rating (cocklebur; [4]): 0
Cocklebur plant response rating (cocklebur; [5]): 0
Plant response rating, Cocklebur (cocklebur; [6]): 0
Plant response rating, Cocklebur (cocklebur; [7]): 0
Plant response rating, Soybean (soybean; [1]): 2
Soybean plant response rating (soybean; [2]): 2
Soybean plant response rating (soybean; [3]): 2
Soybean plant response rating (soybean; [4]): 0
Soybean plant response rating (soybean; [5]): 0
Plant response rating, Soybean (soybean; [6]): 0
Plant response rating, Soybean (soybean; [7]): 0
Plant response rating, Redroot pigweed (pigweed; [1]): 0
Redroot pigweed plant response rating (pigweed; [2]): 0
Redroot pigweed plant response rating (pigweed; [3]): 0
Redroot pigweed plant response rating (pigweed; [4]): 0
Redroot pigweed plant response rating (pigweed; [5]): 0
Plant response rating, Redroot pigweed (pigweed; [6]): 2
Plant response rating, Redroot pigweed (pigweed; [7]): 8
Plant response rating, S. Flatsedge (0 to 10 scale, 0 is no effect, 10 is complete control) (smallflower flatsedge; [9]): 0
S. Flatsedge plant response rating (0 to 10 scale, 0 is no effect, 10 is complete control) (smallflower flatsedge; [10]): 0
S. Flatsedge plant response rating (smallflower flatsedge; [11]): 0
S. Flatsedge plant response rating (smallflower flatsedge; [12]): 0
Plant response rating, Blackgrass (blackgrass; [1]): 0
Blackgrass plant response rating (blackgrass; [2]): 0
Blackgrass plant response rating (blackgrass; [3]): 6
Plant response rating, Blackgrass (blackgrass; [8]): 6
Blackgrass plant response rating (blackgrass; [4]): 0
Blackgrass plant response rating (blackgrass; [5]): 0
Plant response rating, Blackgrass (blackgrass; [6]): 4
Plant response rating, Blackgrass (blackgrass; [7]): 7
Plant response rating, Rice (0 to 10 scale, 0 is no effect, 10 is complete control) (rice; [9]): 0
Rice plant response rating (0 to 10 scale, 0 is no effect, 10 is complete control) (rice; [10]): 0
Rice plant response rating (rice; [11]): 0
Rice plant response rating (rice; [12]): 0
